# According to US8961946B2, “Hair processing agent and method for permanent waving hair” (Showa Denko K.K., priority 2004, dated 2015):
# Where a name gives a salt, the structure may show the parent alone.
# Assay: Waving efficiency at various pH, compounds (i) and (ii) tested singly (FIG. 1)
# Details: agent contains the compound at 2% by mass in terms of thioglycolic acid
# From the text: The hair processing agents tested herein contain the compound at 2% by mass in terms of thioglycolic acid. […] Consequently, the compounds (i) and (ii) in combination provide a permanent waving performance over a wide pH range.
row,Compound,Changes of waving efficiency at various pH (FIG. 1)
1,"O=C1OCCC1S (centres unmarked) [Synthetic Example 1, 2-mercapto-4-butyrolactone]",high waving efficiency in an acidic to neutral pH range
2,"NCCS [compound (ii), cysteamine hydrochloride]","low waving efficiency at acidic pH, but the waving efficiency linearly increases with the pH increase"
